Measurements published in US11603380B2 (Centre national de la recherche scientifique, priority 2018, dated 2023).

The molecules below were run on varicella-zoster virus (VZV) TK− (07/1) (assay: microbe, parasite or virus in culture). Conditions: read-out: EC50 VZV TK− (07/1).
Format: cell-based
With `CCCCCCCCCCCCCCCCOCCCOP(=O)(CC=C(COC(C)=O)COc1cc(Cl)nc(N)n1)OCOC(=O)OC(C)C` (mixture of isomers) [Compound (8), [(E/Z)-2′-[(2-amino-6-chloro-pyrimidin-4-yl)oxymethyl]-4-[3-hexadecoxypropoxy(isopropoxycarbonyloxymethoxy)phosphoryl]but-2′-enyl]acetate] the EC50 was over 20 µM. With “[(E/Z)-2-[[2-[bis(tert-butoxycarbonyl)amino]-6-methoxy-pyrimidin-4-yl]oxymethyl]-4-[3-hexadecoxypropoxy(isopropoxycarbonyloxymethoxy)phosphoryl]but-2′-enyl]acetate [Compound (7)]” the EC50 was over 20 µM. Work on `CCCCCCCCCCCCCCCCOCCCOP(=O)(C/C=C/COc1cc(N)nc(N)n1)OCOC(=O)OC(C)C` (stereo not drawn) [Compound (2), [[(E)-4-(2,6-diaminopyrimidin-4-yl)oxybut-2′-enyl]-(3-hexadecoxypropoxy)phosphoryl]oxymethyl isopropyl carbonate] yielded an EC50 of 0.24 µM.
